{"source": "paper PMC10066365", "about": "“Nemacol is a small molecule inhibitor of C. elegans vesicular acetylcholine transporter with anthelmintic potential” (Nature Communications, 2023)", "key": {"C. elegans": {"system": "C. elegans", "experiment": "C. elegans motor phenotype scoring on solid media (Punc/jerky-unc, coiled, paralyzed), wild-type young adults", "format": "in vivo, Caenorhabditis elegans", "details": "for Fraction Coiled, AVERAGES / Fraction Paralyzed, AVERAGES / Fraction Punc, AVERAGES / NP (number of animals scored) / P (number of animals scored) / Punc (number of animals scored) / Fraction Coiled / Fraction Paralyzed / Fraction Punc / C1 (number of animals scored) / C2 (number of animals scored) / Next Day: Animals alive (moving fine): adults; for Fraction Coiled / Fraction Paralyzed / Fraction Punc: single experiment"}, "[1]": {"system": "Dirofilaria immitis L3/L4", "experiment": "Dirofilaria immitis L3/L4 motility assay (DiroImager, 72 h)", "details": "Dirofilaria immitis L4"}, "[2]": {"details": "60uM, one hour, young adults, 20 animals per trial, single replicate counts"}}, "note": "Where “and” joins values, the source holds several entries; their conditions need not be identical. Equal values may be shown once. Entries after “also recorded” stand apart in the source; their conditions may differ."}
{"compound": "O=[N+]([O-])c1ccc(N2CCN(CC3CC4C=CC3C4)CC2)cc1", "note": "(stereo not drawn) [Nemacol-3]", "values": [{"measurement": "Fraction Coiled, AVERAGES", "setting": "C. elegans; 30 μM, 120 min", "value": 0.0}, {"measurement": "Fraction Paralyzed, AVERAGES", "setting": "C. elegans; 30 μM, 120 min", "value": 0.0}, {"measurement": "Fraction Punc, AVERAGES", "setting": "C. elegans; 30 μM, 120 min", "value": 0.0741}, {"measurement": "NP (number of animals scored)", "setting": "C. elegans; 30 μM, 120 min", "value": "17 and 16"}, {"measurement": "P (number of animals scored)", "setting": "C. elegans; 30 μM, 120 min", "value": 0}, {"measurement": "Punc (number of animals scored)", "setting": "C. elegans; 30 μM, 120 min", "value": "1 and 2"}, {"measurement": "Fraction Coiled", "setting": "C. elegans; 30 μM, 120 min", "value": 0.0}, {"measurement": "Fraction Paralyzed", "setting": "C. elegans; 30 μM, 120 min", "value": 0.0}, {"measurement": "Fraction Punc", "setting": "C. elegans; 30 μM, 120 min", "value": "0.0556 and 0.111"}, {"measurement": "C1 (number of animals scored)", "setting": "C. elegans; 30 μM, 240 min", "value": 0}, {"measurement": "C2 (number of animals scored)", "setting": "C. elegans; 30 μM, 240 min", "value": 0}, {"measurement": "Fraction Coiled, AVERAGES", "setting": "C. elegans; 30 μM, 240 min", "value": 0.0}, {"measurement": "Fraction Paralyzed, AVERAGES", "setting": "C. elegans; 30 μM, 240 min", "value": 0.0}, {"measurement": "Fraction Punc, AVERAGES", "setting": "C. elegans; 30 μM, 240 min", "value": 0.0}, {"measurement": "NP (number of animals scored)", "setting": "C. elegans; 30 μM, 240 min", "value": 18}, {"measurement": "P (number of animals scored)", "setting": "C. elegans; 30 μM, 240 min", "value": 0}, {"measurement": "Punc (number of animals scored)", "setting": "C. elegans; 30 μM, 240 min", "value": 0}, {"measurement": "Fraction Coiled", "setting": "C. elegans; 30 μM, 240 min", "value": 0.0}, {"measurement": "Fraction Paralyzed", "setting": "C. elegans; 30 μM, 240 min", "value": 0.0}, {"measurement": "Fraction Punc", "setting": "C. elegans; 30 μM, 240 min", "value": 0.0}, {"measurement": "C1 (number of animals scored)", "setting": "C. elegans; 30 μM, 360 min", "value": 0}, {"measurement": "C2 (number of animals scored)", "setting": "C. elegans; 30 μM, 360 min", "value": 0}, {"measurement": "Fraction Coiled, AVERAGES", "setting": "C. elegans; 30 μM, 360 min", "value": 0.0}, {"measurement": "Fraction Paralyzed, AVERAGES", "setting": "C. elegans; 30 μM, 360 min", "value": 0.0}, {"measurement": "Fraction Punc, AVERAGES", "setting": "C. elegans; 30 μM, 360 min", "value": 0.0}, {"measurement": "NP (number of animals scored)", "setting": "C. elegans; 30 μM, 360 min", "value": 18}, {"measurement": "P (number of animals scored)", "setting": "C. elegans; 30 μM, 360 min", "value": 0}, {"measurement": "Punc (number of animals scored)", "setting": "C. elegans; 30 μM, 360 min", "value": 0}, {"measurement": "Fraction Coiled", "setting": "C. elegans; 30 μM, 360 min", "value": 0.0}, {"measurement": "Fraction Paralyzed", "setting": "C. elegans; 30 μM, 360 min", "value": 0.0}, {"measurement": "Fraction Punc", "setting": "C. elegans; 30 μM, 360 min", "value": 0.0}, {"measurement": "Next Day: Animals alive (moving fine)", "setting": "C. elegans; 30 μM", "value": "alive, recovered; also recorded: alive, recoveed"}, {"measurement": "C1 (number of animals scored)", "setting": "C. elegans; 60 μM, 30 min", "value": 0}, {"measurement": "C2 (number of animals scored)", "setting": "C. elegans; 60 μM, 30 min", "value": 0}, {"measurement": "Fraction Coiled, AVERAGES", "setting": "C. elegans; 60 μM, 30 min", "value": 0.0}, {"measurement": "Fraction Paralyzed, AVERAGES", "setting": "C. elegans; 60 μM, 30 min", "value": 0.0}, {"measurement": "Fraction Punc, AVERAGES", "setting": "C. elegans; 60 μM, 30 min", "value": 0.667}, {"measurement": "NP (number of animals scored)", "setting": "C. elegans; 60 μM, 30 min", "value": "8 and 6 and 4"}, {"measurement": "P (number of animals scored)", "setting": "C. elegans; 60 μM, 30 min", "value": 0}, {"measurement": "Punc (number of animals scored)", "setting": "C. elegans; 60 μM, 30 min", "value": "10 and 12 and 14"}, {"measurement": "Fraction Coiled", "setting": "C. elegans; 60 μM, 30 min", "value": 0.0}, {"measurement": "Fraction Paralyzed", "setting": "C. elegans; 60 μM, 30 min", "value": 0.0}, {"measurement": "Fraction Punc", "setting": "C. elegans; 60 μM, 30 min", "value": "0.556 and 0.667 and 0.8"}, {"measurement": "C1 (number of animals scored)", "setting": "C. elegans; 60 μM, 60 min", "value": 0}, {"measurement": "C2 (number of animals scored)", "setting": "C. elegans; 60 μM, 60 min", "value": 0}, {"measurement": "Fraction Coiled, AVERAGES", "setting": "C. elegans; 60 μM, 60 min", "value": 0.0}, {"measurement": "Fraction Paralyzed, AVERAGES", "setting": "C. elegans; 60 μM, 60 min", "value": 0.0}, {"measurement": "Fraction Punc, AVERAGES", "setting": "C. elegans; 60 μM, 60 min", "value": 0.741}, {"measurement": "NP (number of animals scored)", "setting": "C. elegans; 60 μM, 60 min", "value": "5 and 3 and 6"}, {"measurement": "P (number of animals scored)", "setting": "C. elegans; 60 μM, 60 min", "value": 0}, {"measurement": "Punc (number of animals scored)", "setting": "C. elegans; 60 μM, 60 min", "value": "13 and 15 and 12"}, {"measurement": "Fraction Coiled", "setting": "C. elegans; 60 μM, 60 min", "value": 0.0}, {"measurement": "Fraction Paralyzed", "setting": "C. elegans; 60 μM, 60 min", "value": 0.0}, {"measurement": "Fraction Punc", "setting": "C. elegans; 60 μM, 60 min", "value": "0.8 and 0.667"}, {"measurement": "C1 (number of animals scored)", "setting": "C. elegans; 60 μM, 90 min", "value": 0}, {"measurement": "C2 (number of animals scored)", "setting": "C. elegans; 60 μM, 90 min", "value": 0}, {"measurement": "Fraction Coiled, AVERAGES", "setting": "C. elegans; 60 μM, 90 min", "value": 0.0}, {"measurement": "Fraction Paralyzed, AVERAGES", "setting": "C. elegans; 60 μM, 90 min", "value": 0.0}, {"measurement": "Fraction Punc, AVERAGES", "setting": "C. elegans; 60 μM, 90 min", "value": 0.463}, {"measurement": "P (number of animals scored)", "setting": "C. elegans; 60 μM, 90 min", "value": 0}, {"measurement": "Fraction Coiled", "setting": "C. elegans; 60 μM, 90 min", "value": 0.0}, {"measurement": "Fraction Paralyzed", "setting": "C. elegans; 60 μM, 90 min", "value": 0.0}, {"measurement": "C1 (number of animals scored)", "setting": "C. elegans; 60 μM, 120 min", "value": 0}, {"measurement": "C2 (number of animals scored)", "setting": "C. elegans; 60 μM, 120 min", "value": 0}, {"measurement": "Fraction Coiled, AVERAGES", "setting": "C. elegans; 60 μM, 120 min", "value": 0.0}, {"measurement": "Fraction Paralyzed, AVERAGES", "setting": "C. elegans; 60 μM, 120 min", "value": 0.0}, {"measurement": "Fraction Punc, AVERAGES", "setting": "C. elegans; 60 μM, 120 min", "value": 0.259}, {"measurement": "NP (number of animals scored)", "setting": "C. elegans; 60 μM, 120 min", "value": "10 and 15"}, {"measurement": "P (number of animals scored)", "setting": "C. elegans; 60 μM, 120 min", "value": 0}, {"measurement": "Fraction Coiled", "setting": "C. elegans; 60 μM, 120 min", "value": 0.0}, {"measurement": "Fraction Paralyzed", "setting": "C. elegans; 60 μM, 120 min", "value": 0.0}, {"measurement": "C1 (number of animals scored)", "setting": "C. elegans; 60 μM, 240 min", "value": 0}, {"measurement": "C2 (number of animals scored)", "setting": "C. elegans; 60 μM, 240 min", "value": 0}, {"measurement": "Fraction Coiled, AVERAGES", "setting": "C. elegans; 60 μM, 240 min", "value": 0.0}, {"measurement": "Fraction Paralyzed, AVERAGES", "setting": "C. elegans; 60 μM, 240 min", "value": 0.0}, {"measurement": "Fraction Punc, AVERAGES", "setting": "C. elegans; 60 μM, 240 min", "value": 0.037}, {"measurement": "NP (number of animals scored)", "setting": "C. elegans; 60 μM, 240 min", "value": "18 and 16"}, {"measurement": "P (number of animals scored)", "setting": "C. elegans; 60 μM, 240 min", "value": 0}, {"measurement": "Fraction Coiled", "setting": "C. elegans; 60 μM, 240 min", "value": 0.0}, {"measurement": "Fraction Paralyzed", "setting": "C. elegans; 60 μM, 240 min", "value": 0.0}, {"measurement": "Fraction Punc", "setting": "C. elegans; 60 μM, 240 min", "value": 0.0}, {"measurement": "C1 (number of animals scored)", "setting": "C. elegans; 60 μM, 360 min", "value": 0}, {"measurement": "C2 (number of animals scored)", "setting": "C. elegans; 60 μM, 360 min", "value": 0}, {"measurement": "Fraction Coiled, AVERAGES", "setting": "C. elegans; 60 μM, 360 min", "value": 0.0}, {"measurement": "Fraction Paralyzed, AVERAGES", "setting": "C. elegans; 60 μM, 360 min", "value": 0.0}, {"measurement": "Fraction Punc, AVERAGES", "setting": "C. elegans; 60 μM, 360 min", "value": 0.0}, {"measurement": "NP (number of animals scored)", "setting": "C. elegans; 60 μM, 360 min", "value": 18}, {"measurement": "P (number of animals scored)", "setting": "C. elegans; 60 μM, 360 min", "value": 0}, {"measurement": "Punc (number of animals scored)", "setting": "C. elegans; 60 μM, 360 min", "value": 0}, {"measurement": "Fraction Coiled", "setting": "C. elegans; 60 μM, 360 min", "value": 0.0}, {"measurement": "Fraction Paralyzed", "setting": "C. elegans; 60 μM, 360 min", "value": 0.0}, {"measurement": "Fraction Punc", "setting": "C. elegans; 60 μM, 360 min", "value": 0.0}, {"measurement": "Next Day: Animals alive (moving fine)", "setting": "C. elegans; 60 μM", "value": "alive, recovered; also recorded: alive recovered"}, {"measurement": "any phene, mean % fraction of young adults exhibiting any phenotype (coiled, jerky-Unc or paralyzed)", "setting": "C. elegans; 60uM, one hour, mean of three biological replicates", "value": 95.8333, "unit": "%"}, {"measurement": "atypical locomotion (number of animals)", "setting": "C. elegans; [2]", "value": "5 and 8 and 9 and 7 and 0 and 4"}, {"measurement": "coiled (number of animals)", "setting": "C. elegans; [2]", "value": "8 and 6 and 10"}, {"measurement": "no phene (number of animals)", "setting": "C. elegans; [2]", "value": "0 and 2 and 3"}, {"measurement": "paralyzed (number of animals)", "setting": "C. elegans; [2]", "value": "7 and 6 and 1 and 4 and 10 and 8"}, {"measurement": "EC50", "setting": "C. elegans; Caenorhabditis elegans, 1 h, Fig. 1, dose-response at 60 min, wild-type young adults, +/- 95% CI, read-out: EC50", "value": "24.5 ± 6.1", "unit": "µM"}, {"measurement": "% effect (motility), DIROIM L4", "setting": "[1]; 2 µM", "value": 0, "unit": "%"}, {"measurement": "% effect (motility), DIROIM L4", "setting": "[1]; 10 µM", "value": 75, "unit": "%"}, {"measurement": "% effect (motility), DIROIM L4", "setting": "[1]; 50 µM", "value": 100, "unit": "%"}]}
